According to the supplement of paper PMC10307832:

Experiments:
Apatinib + Dasatinib = compound: N#CC1(c2ccc(NC(=O)c3cccnc3NCc3ccncc3)cc2)CCCC1 [Apatinib] + Cc1nc(Nc2ncc(C(=O)Nc3c(C)cccc3Cl)s2)cc(N2CCN(CCO)CC2)n1 [Dasatinib] (partner 0.075 µM); experiment: relative viability (nuclei count vs DMSO), 5 days (fraction); higher = more cells survive
How it was run: (§1)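 A single step with final 0.05% Triton X-100, 1% formaldehyde and 1 ug/ml Hoechst fixed the cells and stained nuclei 5 days after treatment. Lung cancer cell lines in 1536-well plates had been treated by pin tool the day after seeding with one drug alone or a fixed anchor-drug dose plus five library-drug doses (not always all listed) in √10 steps, and nuclei were counted on 4× images. Relative viability is the ratio of nuclei in treated wells to nuclei in vehicle wells, taken as the median of duplicate plates.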

Metformin + Trametinib = compound: CN(C)C(=N)NC(=N)N [Metformin] + CC(=O)Nc1cccc(-n2c(=O)n(C3CC3)c(=O)c3c(Nc4ccc(I)cc4F)n(C)c(=O)c(C)c32)c1 [Trametinib] (partner 0.02 µM); experiment: as above
How it was run: as §1

| Cell Line | relative viability (Apatinib + Dasatinib; first compound 0.08 µM) | relative viability (Apatinib + Dasatinib; first compound 0.253 µM) | relative viability (Apatinib + Dasatinib; first compound 0.8 µM) | relative viability (Apatinib + Dasatinib; first compound 2.53 µM) | relative viability (Apatinib + Dasatinib; first compound 8 µM) | relative viability (Metformin + Trametinib; first compound 10 µM) | relative viability (Metformin + Trametinib; first compound 31.62 µM) | relative viability (Metformin + Trametinib; first compound 100 µM) | relative viability (Metformin + Trametinib; first compound 316.23 µM) | relative viability (Metformin + Trametinib; first compound 1000 µM) |
| --- | --- | --- | --- | --- | --- | --- | --- | --- | --- | --- |
| CAL-12T | 0.523 | 0.602 | 0.38 | 0.262 | 0.234 | 0.357 | 0.443 | 0.404 | 0.432 | 0.452 |
| PC-14 | 0.284 | 0.238 | 0.203 | 0.208 | 0.178 | 0.746 | 0.666 | 0.767 | 0.686 | 0.575 |
| NCI-H2009 | 0.374 | 0.326 | 0.31 | 0.195 | 0.179 | 0.366 | 0.362 | 0.387 | 0.36 | 0.384 |
| NCI-H2347 | 0.343 | 0.26 | 0.371 | 0.276 | 0.352 | 0.291 | 0.289 | 0.26 | 0.265 | 0.258 |
| NCI-H23 | 0.799 | 0.837 | 0.694 | 0.727 | 0.611 | 0.433 | 0.492 | 0.384 | 0.385 | 0.575 |
